Measured values taken from PubChem BioAssay AID256 (DTP/NCI, 2004).
“And” between values parts separate entries of the source, which are not always exact repeats. Equal entries are not always repeated. Toxic doses and inconclusive results are not listed. Rule for the calls: active = survival T/C of 150% or more; inactive = T/C below 125% in these data. Residues, ends and D or L forms follow the SMILES beside them. *: point of attachment. Cbz = O=C(OCc1ccccc1)*

Tested on: CD2F1 mice, L1210 leukemia ip, survival T/C
Experiment: NCI In Vivo Anticancer Drug Screen. Data for tumor model L1210 Leukemia (intraperitoneal) in CD2F1 (CDF1) mice
Settings: endpoint: mean survival time, higher = longer survival
How it was run: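 Tumor-bearing mice (transplanted tumor) were split into treated and vehicle control groups, and the measured endpoint of each treated group was divided by that of its vehicle controls.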

[1] = dose: 100.0 mg/kg/injection, schedule: Q01DX001 (ip), vehicle: saline
[2] = dose: 100.0 mg/kg/injection, schedule: Q01DX001 (ip), vehicle: saline with Tween-80
[3] = dose: 200.0 mg/kg/injection, schedule: Q01DX001 (ip), vehicle: saline with Tween-80
[4] = dose: 400.0 mg/kg/injection, schedule: Q01DX001 (ip), vehicle: saline with Tween-80
[5] = dose: 100.0 mg/kg/injection, schedule: Q04DX003 (ip), vehicle: saline with Tween-80
[6] = dose: 100.0 mg/kg/injection, schedule: Q01DX009 (ip), vehicle: saline with Tween-80
[7] = dose: 200.0 mg/kg/injection, schedule: Q01DX009 (ip), vehicle: saline with Tween-80
[8] = dose: 400.0 mg/kg/injection, schedule: Q01DX009 (ip), vehicle: saline with Tween-80
[9] = dose: 100.0 mg/kg/injection, schedule: Q04DX003 (ip), vehicle: saline
[10] = dose: 200.0 mg/kg/injection, schedule: Q04DX003 (ip), vehicle: saline
[11] = dose: 400.0 mg/kg/injection, schedule: Q04DX003 (ip), vehicle: saline
[12] = dose: 200.0 mg/kg/injection, schedule: Q04DX003 (ip), vehicle: saline with Tween-80
[13] = dose: 400.0 mg/kg/injection, schedule: Q04DX003 (ip), vehicle: saline with Tween-80
[14] = dose: 100.0 mg/kg/injection, schedule: Q04DX002 (ip), vehicle: saline with Tween-80
[15] = dose: 75.0 mg/kg/injection, schedule: Q01DX001 (ip), vehicle: other

Measured: T/C

O=[N+]([O-])c1ccc(N=Nc2ccc(N3CC3)c([N+](=O)[O-])c2)cc1
inactive: dose: 65.0 mg/kg/injection, schedule: Q01DX001 (ip), vehicle: Klucel (hydroxypropylcellulose) (HPC) 96 % of control | dose: 130.0 mg/kg/injection, schedule: Q01DX001 (ip), vehicle: Klucel (hydroxypropylcellulose) (HPC) 88 % of control | dose: 260.0 mg/kg/injection, schedule: Q01DX001 (ip), vehicle: Klucel (hydroxypropylcellulose) (HPC) 89 % of control

C=CCNC(C)=O
inactive: [1] 103 % of control | dose: 200.0 mg/kg/injection, schedule: Q01DX001 (ip), vehicle: saline 97 % of control | dose: 400.0 mg/kg/injection, schedule: Q01DX001 (ip), vehicle: saline 103 % of control

CC(=O)Nc1ccc2c(c1)CCC2=O
inactive: [2] 91 % of control | [3] 95 % of control | [4] 98 % of control

Nc1nc2ccc(CNc3ccc(C(=O)NC(CC(=O)O)C(=O)O)cc3)cc2c(=O)[nH]1 (stereo not given)
inactive: dose: 66.0 mg/kg/injection, schedule: Q04DX003 (ip), vehicle: saline with Tween-80 105 % of control | [5] 109 % of control | dose: 150.0 mg/kg/injection, schedule: Q04DX003 (ip), vehicle: saline with Tween-80 105 % of control

NC(=O)C1CC1c1ccccc1 (stereo not given)
inactive: [2] 100 % of control | [3] 102 % of control | [4] 96 % of control

OCC1OC(Nc2ncnc3nc[nH]c23)C(O)C1O (stereo not given)
inactive: [2] 108 % of control | [6] 96 % of control | [3] 94 % of control | [7] 108 % of control | [4] 92 % of control | [8] 100 % of control

CC(C)CC(NC(=O)C(C)NC(=O)OCc1ccccc1)C(N)=O (stereo not drawn) (Cbz-Ala-Leu-NH2; configuration not given here)
inactive: [6] 89 % of control

COCCNP(=O)(OC(C)C)OC(C)C
inactive: [9] 100 % of control | [10] 97 % of control | [11] 101 % of control

CN(C)N=Nc1ccc(NC=O)cc1
inactive: dose: 4.68 mg/kg/injection, schedule: Q01DX009 (ip), vehicle: Klucel (hydroxypropylcellulose) (HPC) 104 % of control | dose: 9.37 mg/kg/injection, schedule: Q01DX009 (ip), vehicle: Klucel (hydroxypropylcellulose) (HPC) 115 % of control and 110 % of control

On1ccc(=S)c2ccccc21
inactive: [5] 102 % of control | [12] 96 % of control | [13] 102 % of control

CCOC(=O)/C(C#N)=C1\CCCc2ccccc21
inactive: dose: 100.0 mg/kg/injection, schedule: Q04DX003 (ip), vehicle: acetone 94 % of control | dose: 200.0 mg/kg/injection, schedule: Q04DX003 (ip), vehicle: acetone 91 % of control

COc1ccc(OC)c(NC(=O)Oc2ccc(-c3ccccc3)cc2Cl)c1
inactive: [6] 105 % of control | [7] 102 % of control | [8] 106 % of control

Cl/C=C\C[N+]12CN3CN(CN(C3)C1)C2
inactive: [9] 96 % of control

O=C(COc1ccc(Cl)c(Cl)c1)NCCc1cc[n+](Cc2ccc(Cl)cc2S(=O)(=O)F)cc1
inactive: [2] 89 % of control | [3] 89 % of control

OC1OCC(Cc2ccc3c(c2)OCO3)C1Cc1ccc2c(c1)OCO2 (stereo not given)
inactive: [9] 89 % of control | [10] 93 % of control | [11] 89 % of control

COC(=O)CCCNC(C)C
inactive: dose: 12.5 mg/kg/injection, schedule: Q01DX009 (ip), vehicle: water 101 % of control | dose: 25.0 mg/kg/injection, schedule: Q01DX009 (ip), vehicle: water 95 % of control | dose: 50.0 mg/kg/injection, schedule: Q01DX009 (ip), vehicle: water 102 % of control | dose: 100.0 mg/kg/injection, schedule: Q01DX009 (ip), vehicle: water 95 % of control | dose: 200.0 mg/kg/injection, schedule: Q01DX009 (ip), vehicle: water 102 % of control

S=c1[nH]cc2cnccn12
inactive: dose: 12.5 mg/kg/injection, schedule: Q01DX009 (ip), vehicle: saline with Tween-80 92 % of control and 103 % of control | dose: 25.0 mg/kg/injection, schedule: Q01DX009 (ip), vehicle: saline with Tween-80 97 % of control and 100 % of control | dose: 50.0 mg/kg/injection, schedule: Q01DX009 (ip), vehicle: saline with Tween-80 95 % of control and 105 % of control | [6] 93 % of control and 100 % of control | [7] 104 % of control | [8] 97 % of control

NC(N)=N/N=C/c1ccc(Cl)c(Cl)c1
inactive: dose: 12.5 mg/kg/injection, schedule: Q04DX003 (ip), vehicle: saline with Tween-80 105 % of control | dose: 25.0 mg/kg/injection, schedule: Q04DX003 (ip), vehicle: saline with Tween-80 97 % of control | dose: 50.0 mg/kg/injection, schedule: Q04DX003 (ip), vehicle: saline with Tween-80 94 % of control

O=C(CC(=O)c1ccccc1F)Nc1ccc([N+](=O)[O-])cc1
inactive: [6] 90 % of control | [5] 96 % of control | [7] 93 % of control | [12] 95 % of control | [8] 88 % of control | [13] 97 % of control

CC1=CC(=O)C(CCC#N)C(C)(C)C1 (stereo not given)
inactive: [14] 91 % of control

COC1=CCC2C(=O)C=CC(=O)C2C1 (stereo not given)
inactive: dose: 12.5 mg/kg/injection, schedule: Q01DX005 (ip), vehicle: Klucel (hydroxypropylcellulose) (HPC) 95 % of control | dose: 25.0 mg/kg/injection, schedule: Q01DX005 (ip), vehicle: Klucel (hydroxypropylcellulose) (HPC) 95 % of control | dose: 50.0 mg/kg/injection, schedule: Q01DX005 (ip), vehicle: Klucel (hydroxypropylcellulose) (HPC) 93 % of control | dose: 100.0 mg/kg/injection, schedule: Q01DX005 (ip), vehicle: Klucel (hydroxypropylcellulose) (HPC) 91 % of control | dose: 200.0 mg/kg/injection, schedule: Q01DX005 (ip), vehicle: Klucel (hydroxypropylcellulose) (HPC) 90 % of control

COc1cccc(OC)c1OC(=O)/C=C/C(=O)Oc1c(OC)cccc1OC
inactive: [6] 96 % of control | [7] 96 % of control | [8] 98 % of control

COc1cc(Cl)ccc1NC(=O)Nc1cccc(Cl)c1
inactive: [14] 88 % of control | dose: 200.0 mg/kg/injection, schedule: Q04DX002 (ip), vehicle: saline with Tween-80 95 % of control | dose: 400.0 mg/kg/injection, schedule: Q04DX002 (ip), vehicle: saline with Tween-80 95 % of control

CCCCCCCCCCCCCCn1cnc2ncnc(Cl)c21
inactive: dose: 6.25 mg/kg/injection, schedule: Q01DX005 (ip), vehicle: distilled water + Tween-80 100 % of control | dose: 12.5 mg/kg/injection, schedule: Q01DX005 (ip), vehicle: distilled water + Tween-80 100 % of control | dose: 25.0 mg/kg/injection, schedule: Q01DX005 (ip), vehicle: distilled water + Tween-80 93 % of control | dose: 50.0 mg/kg/injection, schedule: Q01DX005 (ip), vehicle: distilled water + Tween-80 90 % of control | dose: 100.0 mg/kg/injection, schedule: Q01DX005 (ip), vehicle: distilled water + Tween-80 91 % of control

c1ccc(CCNCc2ccccn2)nc1
inactive: dose: 25.0 mg/kg/injection, schedule: Q04DX002 (ip), vehicle: saline 96 % of control | dose: 50.0 mg/kg/injection, schedule: Q04DX002 (ip), vehicle: saline 101 % of control | [1] 94 % of control | dose: 100.0 mg/kg/injection, schedule: Q04DX002 (ip), vehicle: saline 96 % of control

O=C1C2=Cc3ccccc3CN2Cc2ccccc21
inactive: [15] 98 % of control | dose: 150.0 mg/kg/injection, schedule: Q01DX001 (ip), vehicle: other 101 % of control

Cc1ccc(S(=O)(=O)N2CCC2)cc1
inactive: [6] 98 % of control | [5] 100 % of control | [7] 102 % of control | [12] 100 % of control | [8] 96 % of control | [13] 97 % of control

O=C(c1ccccc1)C1C(c2ccccc2)C2(CCCCC2=O)C(c2ccccc2)CC1(O)c1ccccc1 (stereo not given)
inactive: dose: 100.0 mg/kg/injection, schedule: Q01DX001 (ip), vehicle: Klucel (hydroxypropylcellulose) (HPC) 96 % of control

CNNCCCCC(=O)NC(C)C
inactive: dose: 25.0 mg/kg/injection, schedule: Q04DX003 (ip), vehicle: saline 105 % of control | dose: 50.0 mg/kg/injection, schedule: Q04DX003 (ip), vehicle: saline 101 % of control | [9] 101 % of control

Nc1nc2ncc(CNc3ccc(C(=O)NC(CCC(=O)O)C(=O)O)cn3)nc2c(=O)[nH]1 (stereo not given)
inactive: [15] 102 % of control
